Experimental data as given in US10189845B2, “4,6-substituted-pyrazolo[1,5-a]pyrazines as janus kinase inhibitors” (ARRAY BIOPHARMA INC., priority 2014, dated 2019).

Legend:
Type in all cases: biochemical
[1] = target: Human Tyk2 kinase domain (Homo sapiens (Human), UniProt P29597); assay: Tyk2 Inhibition Assay (Example A, Omnia kinase fluorescence peptide substrate assay); details: TYK2 Enzyme IC50 1 mM ATP, averaged IC50 ranges
Summary of the method: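 Omnia Sox-peptide kinetic fluorescence assay (ex 360/em 485 nm, read every 50 s for 45 min) with 1 nM human Tyk2 kinase domain (aa 886–1187, His tag cleaved, baculovirus-expressed), 1 mM ATP, 8 μM Omnia Y12 peptide, in 25 mM HEPES pH 7.4, 10 mM MgCl2, 0.01% Triton X-100, 1 mM DTT, 2% DMSO. IC50 from 4-parameter logistic fit of percent of control.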

[2] = target: JAK1 (Homo sapiens (Human), UniProt P23458); assay: JAK1 Inhibition Assay (Example B, Omnia kinase fluorescence peptide substrate assay)
Summary of the method: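 Recombinant human JAK1 (12.5 nM) with 1 mM ATP and 8 μM Omnia Y12 Sox-peptide in 25 mM HEPES pH 7.4, 10 mM MgCl2, 0.01% Triton X-100, 1 mM DTT, 2% DMSO final. Phosphorylation read kinetically (ex 360/em 485 nm, 45 min); IC50 from 4-parameter fit of percent of control.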

[3] = target: JAK2 (Homo sapiens (Human), UniProt O60674); assay: JAK2 Inhibition Assay (Example C, Omnia kinase fluorescence peptide substrate assay); details: JAK2 Enzyme IC50 1 mM ATP, averaged IC50 ranges
Summary of the method: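 4 nM JAK2 with 1 mM ATP and 10 μM Omnia Y7 peptide in 25 mM HEPES pH 7.4, 10 mM MgCl2, 0.01% Triton X-100, 1 mM DTT, 2% DMSO. Sox fluorescence (ex 360/em 485 nm) read every 50 s for 45 min; IC50 from 4-parameter fit of percent of control.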

[4] = target: JAK3 (Homo sapiens (Human), UniProt P52333); assay: JAK3 Inhibition Assay (Example D, Omnia kinase fluorescence peptide substrate assay)
Summary of the method: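 Mixture held 2 nM JAK3, 1 mM ATP and 10 μM Omnia Y7 peptide in 25 mM HEPES pH 7.4, 10 mM MgCl2, 0.01% Triton X-100, 1 mM DTT, 2% DMSO final. Sox fluorescence (ex 360/em 485 nm) was read every 50 s for 45 min. IC50 came from a 4-parameter logistic fit of percent of control.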

JAK3, sequence (P52333 whole entry): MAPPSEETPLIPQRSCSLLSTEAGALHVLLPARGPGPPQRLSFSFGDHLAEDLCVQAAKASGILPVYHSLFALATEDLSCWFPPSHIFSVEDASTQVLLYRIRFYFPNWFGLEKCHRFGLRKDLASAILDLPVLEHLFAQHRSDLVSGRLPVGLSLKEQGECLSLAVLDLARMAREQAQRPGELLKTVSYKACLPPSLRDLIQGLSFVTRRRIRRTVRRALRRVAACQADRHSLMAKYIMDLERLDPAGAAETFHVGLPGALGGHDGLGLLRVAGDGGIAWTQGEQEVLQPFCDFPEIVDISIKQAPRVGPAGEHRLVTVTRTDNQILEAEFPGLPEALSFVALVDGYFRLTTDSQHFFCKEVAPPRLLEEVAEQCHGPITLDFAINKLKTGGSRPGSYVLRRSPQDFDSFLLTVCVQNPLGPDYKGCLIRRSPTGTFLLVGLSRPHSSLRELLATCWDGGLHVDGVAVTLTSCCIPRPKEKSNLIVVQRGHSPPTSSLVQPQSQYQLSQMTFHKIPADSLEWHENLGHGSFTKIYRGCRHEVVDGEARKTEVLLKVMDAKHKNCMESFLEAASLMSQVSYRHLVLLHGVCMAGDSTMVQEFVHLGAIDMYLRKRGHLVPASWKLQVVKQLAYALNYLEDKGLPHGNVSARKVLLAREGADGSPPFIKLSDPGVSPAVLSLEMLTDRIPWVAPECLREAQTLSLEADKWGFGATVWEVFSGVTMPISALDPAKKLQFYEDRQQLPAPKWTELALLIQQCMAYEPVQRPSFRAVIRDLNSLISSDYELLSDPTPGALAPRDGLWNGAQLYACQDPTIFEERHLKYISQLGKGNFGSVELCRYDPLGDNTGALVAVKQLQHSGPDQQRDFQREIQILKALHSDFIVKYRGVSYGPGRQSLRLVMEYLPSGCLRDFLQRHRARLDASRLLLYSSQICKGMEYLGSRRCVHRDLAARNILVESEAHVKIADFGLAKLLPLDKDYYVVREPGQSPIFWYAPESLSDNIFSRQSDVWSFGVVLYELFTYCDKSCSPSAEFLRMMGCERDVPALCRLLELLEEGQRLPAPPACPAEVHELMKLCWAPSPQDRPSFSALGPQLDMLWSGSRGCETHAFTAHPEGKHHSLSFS
Human Tyk2 kinase domain, sequence (P29597 886-1187): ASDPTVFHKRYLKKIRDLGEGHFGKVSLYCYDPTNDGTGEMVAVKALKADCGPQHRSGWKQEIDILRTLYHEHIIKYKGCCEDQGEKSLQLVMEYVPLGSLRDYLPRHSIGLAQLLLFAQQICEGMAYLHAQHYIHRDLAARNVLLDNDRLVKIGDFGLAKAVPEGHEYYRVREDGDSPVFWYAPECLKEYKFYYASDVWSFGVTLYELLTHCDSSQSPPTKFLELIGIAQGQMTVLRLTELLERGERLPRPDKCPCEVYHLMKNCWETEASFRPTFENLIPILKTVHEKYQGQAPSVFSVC
JAK1, sequence (P23458 whole entry): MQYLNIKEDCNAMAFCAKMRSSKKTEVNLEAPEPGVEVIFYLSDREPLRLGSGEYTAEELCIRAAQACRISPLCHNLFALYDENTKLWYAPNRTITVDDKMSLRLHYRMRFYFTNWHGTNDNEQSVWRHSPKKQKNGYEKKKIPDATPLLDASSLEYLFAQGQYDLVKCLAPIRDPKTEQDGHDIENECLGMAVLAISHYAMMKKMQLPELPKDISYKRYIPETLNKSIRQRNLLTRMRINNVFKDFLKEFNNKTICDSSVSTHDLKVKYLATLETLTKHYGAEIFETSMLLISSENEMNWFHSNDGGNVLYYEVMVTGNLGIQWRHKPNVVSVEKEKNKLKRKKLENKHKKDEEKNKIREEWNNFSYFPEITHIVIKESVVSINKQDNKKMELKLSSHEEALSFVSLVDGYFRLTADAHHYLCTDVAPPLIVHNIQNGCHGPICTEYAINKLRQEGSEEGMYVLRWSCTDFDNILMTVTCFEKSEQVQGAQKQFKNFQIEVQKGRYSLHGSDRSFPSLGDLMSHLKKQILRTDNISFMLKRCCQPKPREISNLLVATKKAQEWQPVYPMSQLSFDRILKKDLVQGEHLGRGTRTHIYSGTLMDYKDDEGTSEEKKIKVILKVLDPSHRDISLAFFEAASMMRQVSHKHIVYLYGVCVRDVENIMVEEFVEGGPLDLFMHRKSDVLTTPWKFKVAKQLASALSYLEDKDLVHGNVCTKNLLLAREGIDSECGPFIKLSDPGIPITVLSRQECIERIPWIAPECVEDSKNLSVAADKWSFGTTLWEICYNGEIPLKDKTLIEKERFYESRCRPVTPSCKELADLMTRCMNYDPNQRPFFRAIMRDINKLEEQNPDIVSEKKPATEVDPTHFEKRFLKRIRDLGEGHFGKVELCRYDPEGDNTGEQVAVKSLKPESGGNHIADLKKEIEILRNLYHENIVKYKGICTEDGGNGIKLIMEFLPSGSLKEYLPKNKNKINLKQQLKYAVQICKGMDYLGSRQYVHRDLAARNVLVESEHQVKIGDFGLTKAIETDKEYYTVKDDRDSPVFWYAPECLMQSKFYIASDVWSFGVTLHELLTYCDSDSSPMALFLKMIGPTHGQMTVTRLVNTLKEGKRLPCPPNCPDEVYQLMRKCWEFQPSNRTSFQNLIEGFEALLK
JAK2, sequence (O60674 whole entry): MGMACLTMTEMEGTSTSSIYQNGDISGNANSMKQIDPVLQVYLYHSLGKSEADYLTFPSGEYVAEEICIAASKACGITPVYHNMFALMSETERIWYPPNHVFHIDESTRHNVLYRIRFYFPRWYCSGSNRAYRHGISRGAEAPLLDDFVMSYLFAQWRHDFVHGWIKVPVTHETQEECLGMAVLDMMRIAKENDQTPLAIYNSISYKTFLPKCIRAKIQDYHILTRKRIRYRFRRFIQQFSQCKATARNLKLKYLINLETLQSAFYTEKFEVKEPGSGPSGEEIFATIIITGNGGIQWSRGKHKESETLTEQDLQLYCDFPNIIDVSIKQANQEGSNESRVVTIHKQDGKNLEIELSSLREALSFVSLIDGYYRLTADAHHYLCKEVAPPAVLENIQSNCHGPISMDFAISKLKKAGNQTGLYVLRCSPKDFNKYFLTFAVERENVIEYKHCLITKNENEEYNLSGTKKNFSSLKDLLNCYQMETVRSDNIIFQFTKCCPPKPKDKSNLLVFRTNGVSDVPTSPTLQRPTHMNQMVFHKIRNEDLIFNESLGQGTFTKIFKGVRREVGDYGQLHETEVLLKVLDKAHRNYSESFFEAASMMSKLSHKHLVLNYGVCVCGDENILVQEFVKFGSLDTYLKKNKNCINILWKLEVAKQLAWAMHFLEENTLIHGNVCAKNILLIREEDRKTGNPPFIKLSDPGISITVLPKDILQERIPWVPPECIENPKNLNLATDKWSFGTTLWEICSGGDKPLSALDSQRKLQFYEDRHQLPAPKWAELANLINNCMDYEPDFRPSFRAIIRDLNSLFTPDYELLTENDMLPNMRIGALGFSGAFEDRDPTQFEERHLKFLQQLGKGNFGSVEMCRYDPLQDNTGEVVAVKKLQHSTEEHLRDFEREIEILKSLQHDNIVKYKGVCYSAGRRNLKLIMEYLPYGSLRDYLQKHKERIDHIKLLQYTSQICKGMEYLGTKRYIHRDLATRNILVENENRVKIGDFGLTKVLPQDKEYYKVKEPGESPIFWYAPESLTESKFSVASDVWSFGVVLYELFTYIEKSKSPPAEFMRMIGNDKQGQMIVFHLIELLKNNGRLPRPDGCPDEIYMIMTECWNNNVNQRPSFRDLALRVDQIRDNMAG

| IC50 [1] [nM] | IC50 [2] [nM] | IC50 [3] [nM] | IC50 [4] [nM] | SMILES |
| --- | --- | --- | --- | --- |
| 10 to 100 | 100 to 1000 | 10 to 100 | 1000 to 10000 | CCC(CC)n1cc(-c2nc(-c3cnn(CC(O)CC(F)(F)F)c3)cn3nccc23)cn1 (stereo not drawn) [Example 111, 4,4,4-trifluoro-1-(4-(4-(1-(pentan-3-yl)-1H-pyrazol-4-yl)pyrazolo[1,5-a]pyrazin-6-yl)-1H-pyrazol-1-yl)butan-2-ol] |
| 10 to 100 | 100 to 1000 | 10 to 100 | 1000 to 10000 | CC[C@H](CC(F)(F)F)n1cc(-c2nc(-c3cnn(C(CO)CO)c3)cn3nccc23)cn1 [Example 211, (R)-2-(4-(4-(1-(1,1,1-trifluoropentan-3-yl)-1H-pyrazol-4-yl)pyrazolo[1,5-a]pyrazin-6-yl)-1H-pyrazol-1-yl)propane-1,3-diol] |
| 10 to 100 | 10 to 100 | 10 to 100 | 1000 to 10000 | CCC(C1CC(F)(F)C1)n1cc(-c2nc(-c3cnn(C[C@@H](O)CO)c3)cn3nccc23)cn1 (stereo partly drawn) [Example 79, (2R)-3-(4-(4-(1-(1-(3,3-difluorocyclobutyl)propyl)-1H-pyrazol-4-yl)pyrazolo[1,5-a]pyrazin-6-yl)-1H-pyrazol-1-yl)propane-1,2-diol] |
